Source: patent US20130040331A1, “LABEL-FREE METHODS RELATED TO hERG POTASSIUM ION [sequence]” (CORNING INCORPORATED, priority 2009, published 2013)
“Also recorded” adds a separate entry of the source. Read-outs that look alike come from different tables or passages of the source.

Tests used:
[1] = tested on: mallotoxin DMR signal in HT29 cells; assay: DMR modulation index against the mallotoxin DMR signal in HT29 cells; format: cell-based, human
Source text: (§1) A “molecule modulation index” or like terms is an index to display the ability of the molecule to modulate the biosensor output signals of the panels of markers acting on the panel of cells. The modulation index is generated by normalizing a specific biosensor output signal parameter of a response of a cell upon stimulation with a marker in the presence of a molecule against that in the absence of any molecule.
(§2) Epic® wavelength interrogation system (Corning Inc., Corning, N.Y.) was used for whole cell sensing. This system consists of a temperature-control unit, an optical detection unit, and an on-board liquid handling unit with robotics. The detection unit is centered on integrated fiber optics, and enables kinetic measures of cellular responses with a time interval of ˜15 sec.
(§3) Cells were plated in 384-well Epic® cell culture treated plate (Corning Cat#5040) 16-20 hours before assay (15000 cells/well for HEK293 and HEK-hERG cells, 30000 cells/well for HT29 cells). For both HEK-hERG and its parental HEK293 cells, each well was coated with 10 μl 5 μg/ml fibronectin. One hour before assay, cells were washed twice on a BioTek ELx405 Select washer with Hank's Balanced Salt Solution (HBSS) containing 20 mM Hepes. Cells were incubated in 40 μl/well HBSS at 28° C. inside the Epic system for one hour. For each assay, a 2-min baseline was initiated, followed by addition of 10 μl compound solutions (5×) and the cell responses were recorded continuously for one hour.
(§4) All studies were carried out at a controlled temperature (28° C.). At least two independent sets of experiments, each with at least three replicates, were performed. […] All dose-dependent responses were analyzed using non-linear regression method with the GraphPad Prism 5.
(§5) The DMR modulation index was generated by normalizing the mallotoxin DMR signal in either cell line in the presence of compound […] to its corresponding DMR signal in the absence of the compound, and the percentage of modulation was based on the amplitude of the mallotoxin DMR signal at a specific time (−18 min after stimulation for HEK-hERG cells, and ˜50 min after stimulation for HT29 cells, respectively). Mallotoxin is known to display polypharmacology. It is also known to be a protein kinase C (PKC) inhibitor; and PKC is a downstream signaling component of hERG activation. Thus, it would be difficult or almost impossible to assign the mode(s) of action of mallotoxin to be a hERG activator when either cell line is individually assayed with the label-free biosensor (i.e., Epic® system). […] However, combining the primary DMR profiles of a compound across the three cell lines tested with the modulation index of the compound against the mallotoxin responses in both HT29 and […] cells can correctly identify whether the compound is a hERG activator or not. The results shown in FIG. 1 indicate that indeed mallotoxin is a hERG activator; and the activation of hERG can result in detectable biosensor responses in the two hERG expressing cell lines.

[2] = tested on: hERG channel or hERG-associated signaling complex; assay: Classification of hERG modulators by label-free biosensor profiles across three cell lines plus mallotoxin modulation index; format: cell-based, human
Source text: The traditional hERG ion channel assay involves assaying ion flux such as Rb^+ flux using ion absorption assays, or assaying hERG currents directly using patch clamping methods. Traditionally, a molecule which causes increase in Rb^+ flux and/or hERG currents is referred to a hERG activator, while a molecule which inhibits Rb^+ flux and/or hERG currents is referred to a hERG inhibitor. […] These hERG activators may or may not result in detectable biosensor signals in cells, using label-free biosensor cellular assays. A hERG activator that results in a detectable biosensor signal in a hERG expressing cell via hERG or hERG signaling complex is also referred to a label-free biosensor hERG activator.
Disclosed are methods of classifying a molecule for modulating hERG activity, comprising the steps: a. incubating a molecule individually with at least three different types of cells consisting of a native cell endogenously expressing hERG, an engineered cell stably expressing hERG and its parental cell without expressing hERG, and b. monitoring the molecule induced cellular response on each cell type with a label-free biosensor cellular assay,
Also disclosed are methods, further comprising as steps c) incubating a label-free biosensor hERG activator with each cell type in the presence of the molecule, d. monitoring the label-free biosensor hERG activator induced cellular response on each cell type in the presence of the molecule, e. generating a biosensor modulation index of the molecule against the label-free biosensor hERG activator induced biosensor signals in the two hERG expressing cell types.
as §5

hERG channel [3] = target: T1, hERG channel (Homo sapiens, UniProt Q12809); assay: Rb+ flux assay using HEK-hERG cells; conditions: for effect on hERG ion flux (Rb+ flux, FIG. 6): HEK-hERG cells, overall statement, KCl and concentration not specified
T1 sequence (Q12809 whole entry): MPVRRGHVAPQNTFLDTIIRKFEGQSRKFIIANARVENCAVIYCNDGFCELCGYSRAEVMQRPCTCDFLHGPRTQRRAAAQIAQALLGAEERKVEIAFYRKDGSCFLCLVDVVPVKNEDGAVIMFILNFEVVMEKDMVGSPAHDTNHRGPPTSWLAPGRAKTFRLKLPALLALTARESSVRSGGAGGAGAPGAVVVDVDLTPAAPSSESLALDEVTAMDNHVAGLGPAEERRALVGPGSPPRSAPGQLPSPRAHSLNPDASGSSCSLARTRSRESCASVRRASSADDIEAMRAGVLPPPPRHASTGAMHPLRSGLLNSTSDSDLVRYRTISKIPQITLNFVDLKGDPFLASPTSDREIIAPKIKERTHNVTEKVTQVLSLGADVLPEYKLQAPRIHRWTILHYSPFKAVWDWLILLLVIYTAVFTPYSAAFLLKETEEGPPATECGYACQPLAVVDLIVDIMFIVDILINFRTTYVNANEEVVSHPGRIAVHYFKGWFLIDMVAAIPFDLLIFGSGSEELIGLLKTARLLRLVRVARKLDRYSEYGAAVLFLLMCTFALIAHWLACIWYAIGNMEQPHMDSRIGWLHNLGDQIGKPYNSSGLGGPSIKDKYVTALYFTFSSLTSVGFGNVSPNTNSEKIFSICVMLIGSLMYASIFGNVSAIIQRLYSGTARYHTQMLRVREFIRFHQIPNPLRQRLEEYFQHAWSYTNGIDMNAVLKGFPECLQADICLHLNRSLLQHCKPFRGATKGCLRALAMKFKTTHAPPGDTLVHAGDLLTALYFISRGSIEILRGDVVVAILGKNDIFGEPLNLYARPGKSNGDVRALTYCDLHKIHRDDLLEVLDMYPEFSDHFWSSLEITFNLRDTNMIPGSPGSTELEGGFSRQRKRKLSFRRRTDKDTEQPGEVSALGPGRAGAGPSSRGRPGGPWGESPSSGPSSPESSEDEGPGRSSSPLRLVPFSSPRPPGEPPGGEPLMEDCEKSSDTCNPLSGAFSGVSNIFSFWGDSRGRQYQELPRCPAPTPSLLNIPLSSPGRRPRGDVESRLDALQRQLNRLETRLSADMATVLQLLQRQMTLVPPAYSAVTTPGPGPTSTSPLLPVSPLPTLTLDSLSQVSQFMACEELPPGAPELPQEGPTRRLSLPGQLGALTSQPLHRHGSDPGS
Procedure: Briefly, 50,000 cells per well were plated in 96-well tissue culture treated plates 20 hours before assay. In the next day, cells were incubated with complete cell culture medium containing 5 mM RbCl for 3 hours at 37° C. with 5% CO2. Then compounds (10×) diluted in HBSS were added into the cell culture medium and cells were incubated at 37° C. with 5% CO2 for another hour. Cells were washed twice with Rb^+ free cell culture medium and incubated with 180 μl/well of cell culture medium containing different concentration of KCl for exactly 10 minutes. The supernatant from each well was transferred to a new 96 well plate immediately. Cells were lysed with 180 μl/well 0.5% Triton-100 in HBSS. The Rb^+ concentration of each sample was determined by ICR8000 (Aurora Biomed Inc.).

HEK-hERG cells = assay: Label-free RWG biosensor (Epic) DMR assay, agonism mode, HEK-hERG cells stably expressing hERG; format: cell-based, human
Procedure: as §2, §3, §4
(§6) Three different types of cells: human colon cancerous cell line HT-29, HEK293 and its engineered HEK-hERG cell lines were used. HT-29 is known to endogenously express hERG channels. HEK293 is a native cell line without endogenously expressed hERG channels, while HEK-hERG is an engineered HEK293 cells having stably expressed hERG channels. Mallotoxin, a newly discovered hERG activator, was used to activate hERG channels at or near physiological conditions (i.e., 1×HBSS buffered conditions).

[4] = tested on: mallotoxin DMR signal in HEK-hERG cells; format: cell-based, human
Source text: as §1, §2, §3, §4, §5

HT29 cells = assay: Label-free RWG biosensor (Epic) DMR assay, agonism mode, HT29 cells endogenously expressing hERG; format: cell-based, human
Procedure: as §2, §3, §4, §6

HEK293 cells = assay: Label-free RWG biosensor (Epic) DMR assay, agonism mode, native HEK293 cells without hERG; format: cell-based, human
Procedure: as §2, §3
All studies were carried out at a controlled temperature (28° C.). At least two independent sets of experiments, each with at least three replicates, were performed. […] All dose-dependent responses were analyzed using non-linear regression method with the GraphPad Prism 5. […]

hERG channel [5] = target: T1, hERG channel; assay: Automated patch clamp recording of hERG current using IonWorks, CHO-hERG cells
Procedure: CHO—K1 cells stably expressing hERG channel (CHO-hERG) were cultured in T175 flask till about 70% confluent. Cells were washed twice with PBS, then 2.5 ml 0.25% Trypsin/EDTA was mixed with 2.5 ml PBS and added to the T175 flask. Cells were incubated about 2 minutes with the diluted Trypsin/EDTA solution at 37° C., then were continuously incubated about 3 minutes at room temperature. 20 ml fresh medium were added to suspend the cells and transfer to a 50 ml tube. Cells were centrifuged down at 750 rpm for 5 minutes. The extra medium was removed and cells were resuspended in 6 ml External Buffer (137 mM NaCl, 4 mM KCl, 1.8 mM CaCl2, 1 mM MgCl2, 10 mM HEPES, 10 mM glucose, pH 7.4). Then cells were centrifuged again at 450 rpm for another 5 minutes. Finally cells were resuspended in 4 ml the External Buffer, cell number was counted using a hemacytometer. Cell suspension was diluted to 2.5×10^6 cells/ml with the External Buffer. 4 ml of the resuspended cells were added to the cell reservoir in IonWorks. The Internal solution used contains: 40 mM KCl, 100 mM K-Gluconate, 3.2 mM MgCl2, 2 mM CaCl2, 5 mM HEPES, pH 7.25 (adjusted with KOH). 5 mg Amphotericin B from 200 ul DMSO stock was added to 65 ml the Internal solution and mixed well to achieve electrical access to the interior of cells on the patch plate.
Compounds were prepared from 10 mM DMSO stock and diluted in the External Buffer to make 3× compound solution. […] of the 3× compound solution was transferred to a 384 well plate in Row A, B, C and D. PD11857 (Sigma-Aldrich), a reported hERG channel activator was used as activator positive control (final concentration 30 and 50 μM). hERG blocker dofetilide was used as blocker positive control (final concentration 100 nM). The final DMSO concentration in the IonWorks Quattro PatchPlate PPC plate (Cat#9000-0902, Molecular Devices) was 0.5%. Final compound concentration was 50 μM. Each compound was added to four wells of one PPC plate.
hERG currents were recorded on IonWorks Quattro (Molecular Devices). To record hERG current, the cells were clamped at −80 mV initially, then followed by a 5-s depolarization at +40 mV to activate the channels. Tail currents were measured during an ensuing return to −35 mV. Data analysis were done using IonWorks Quttro® System Software version 2.0.4.4. Data from wells with seal resistance less than 50 MΩ or hERG tail currents less than 0.1 nA were filtered out. […] Inhibitor hits were selected if hERG tail currents ratio (post/pre-compound) is less than mean-2SD of the average DMSO control.
To record hERG current, the cells were clamped at −80 mV initially, then followed by a 5-s depolarization at +40 mV to activate the channels (phase a in FIG. 10A). Tail currents were measured during an ensuing return to −35 mV for 2 seconds (phase b in FIG. 10A). Final holding potential at −70 mV (phase c in FIG. 10B).

phosphodiesterase 4 = assay: Effect on phosphodiesterase 4 activity (data not shown)
PKC = assay: Effect on PKC activity (data not shown)
[6] = compound at 10 micromolar, mallotoxin 16 micromolar
[7] = 16 μM mallotoxin, blockers dose-dependent (30 μM, 30 min pretreatment in FIG. 8A)

N#CC(C#N)=Cc1ccc([N+](=O)[O-])c(O)c1 [AG-126]
modulation of the mallotoxin DMR signal in HT29 cells [1, 6]: only partially attenuated | hERG pathway activity class by label-free biosensor [2]: hERG pathway activator, specifically in the endogenous hERG channel complex in HT29 | effect on hERG ion flux (Rb+ flux, FIG. 6) (hERG channel [3]): little or no impact; also recorded: non-effector in hERG ion flux

O=C(Nc1cc(C(F)(F)F)ccc1O)Nc1cc(C(F)(F)F)ccc1O [NS1643]
DMR signal in HEK-hERG cells (HEK-hERG cells; concentration not given, data not shown): induced a detectable DMR signal

COc1cc(N)c(Cl)cc1C(=O)NC1CCN(CCCOc2ccc(F)cc2)CC1OC (stereo not shown) [cisapride]
effect of pretreatment on the mallotoxin DMR signal in HEK-hERG cells [4]: dose-dependent suppression

O=C(O)c1cc(-c2ccc(F)cc2F)ccc1O [diflunisal]
modulation of the mallotoxin DMR signal in HT29 cells [1, 6]: completely desensitized | score of modulation index in coordination, HEK-hERG coordinate ([4]; human): 1 | hERG pathway activity class by label-free biosensor [2]: hERG pathway activator | Rb+ signal in HEK-hERG cells (hERG channel [3]; 5 mM KCl, compound at 10 or 50 μM): only at 50 μM triggered a detectable increase | effect on hERG ion flux (Rb+ flux, FIG. 6) (hERG channel [3]): weak hERG ion flux activator

O=C(O)c1cccnc1Nc1cccc(C(F)(F)F)c1 [niflumic acid]
hERG pathway activity class by label-free biosensor [2]: hERG pathway activator

CC(C)(O)[C@H]1O[C@H]2CC[C@@]3(C)[C@@](O)(CC[C@H]4Cc5c([nH]c6ccccc56)[C@@]43C)C2=CC1=O [paxilline]
effect of pretreatment on the mallotoxin DMR signal in HEK-hERG cells [4, 7]: no effect

C=C(C)[C@H]1O[C@H]2CC[C@@]3(C)[C@@](O)(CC[C@H]4[C@@H]5OC(C)(C)[C@H]6C[C@@H]7C(=C)Cc8c(Cl)cc9[nH]c(c5c9c8[C@@]76O)[C@@]43C)[C@@]23O[C@H]3[C@H]1O [penitrem A]
effect of pretreatment on the mallotoxin DMR signal in HEK-hERG cells [4, 7]: no effect

O=C1NCCN1CCN1CCC(c2cn(-c3ccc(F)cc3)c3ccc(Cl)cc23)CC1 [sertindole]
DMR signal in HT29 cells (HT29 cells): did not trigger any DMR signals | DMR signal in HEK-hERG cells (HEK-hERG cells): did not trigger any DMR signals | DMR signal in HEK293 cells (HEK293 cells): did not trigger any DMR signals | modulation of the mallotoxin DMR signal in HT29 cells ([1]; dose dependent, concentrations not given): attenuated

N#CC(C#N)=C(N)/C(C#N)=C/c1cc(O)c(O)c(O)c1 [tyrphostin 51]
DMR signal in HEK-hERG cells (HEK-hERG cells; compound at 10 μM): robust but different DMR signals | modulation of the mallotoxin DMR signal in HT29 cells [1, 6]: only partially attenuated | effect on hERG tail current (hERG channel [5]; 50 μM, tail current at return to −35 mV): significantly suppressed | effect on hERG current (hERG channel [5]; final compound concentration 50 μM): hERG current inhibitor | hERG pathway activity class by label-free biosensor [2]: hERG pathway activator | effect on activity of phosphodiesterase 4 (phosphodiesterase 4): suppresses the activity | effect on activity of PKC (PKC): suppresses the activity | effect on hERG ion flux (Rb+ flux, FIG. 6) (hERG channel [3]): little impact; also recorded: weak hERG ion flux activator
